Assay results: patent US5344941A, “Water soluble salts of thionaphthene-2-carboxylic acid” (priority 1992, dated 1994)
Structures can show the parent of a compound that is named as a salt.

Tests used:
[1] = Solubility in water and organic solvents
[2] = pH of a 5% aqueous solution of the salt; format: physicochemical
[3] = in vivo
[4] = in vivo; remark: listed apart in the source
Source text: The utility of the salts, in a clinical treating sense, is equivalent to TNCA itself but they are far more useful, practically, for the reasons of amelioration of side effects and the high blood levels available via the oral route.

[5] = pK; format: physicochemical
[6] = system: mice; details: cited from earlier work
[7] = system: mice; assay: Acute toxicity (LD50) by oral route and by injection; details: oral vs intraperitoneal
[8] = as above; details: mouse, in vivo
[9] = system: rats made hypercalcemic by the injection of Leydig-cell carcinoma-tumor material; assay: Reduction of blood calcium levels of rats made hypercalcemic by injection of Leydig-cell carcinoma-tumor material; format: in vivo
Protocol: The following tables (Experiments I and II) illustrate the effectiveness of the present invention in reducing the blood calcium levels of rats made hypercalcemic by the injection of Leydig-cell carcinoma-tumor material. For details of the methodology employed in these studies, see: Johannesson et al., Endocrinology 117/4: 1508-1511 (1985). Normal calcium blood levels are in the range of 9-10 mg/dL.
In the table, n=number of rats evaluated at each dosage and in controls while S.D.=standard deviation. These higher initial values reflect Leydig cell-induced hypercalcemia. Data for final calcium levels show the decreases in calcium levels produced following administration of the lysine salt of TNCA.

O=C(O)c1cc2ccccc2s1 [potassium, potassium salt of TNCA]
Water solubility (in words) ([1]; water): mainly insoluble in water

O=C(O)c1cc2ccccc2s1 [Example 6, Sodium salt of TNCA]
Water solubility (in words) ([1]; water): water-insoluble
Water solubility (in words) ([1]; water, listed as sodium): mainly insoluble in water

O=C(O)c1cc2ccccc2s1 [Example 2]
pH of a 5% aqueous solution [2]: 6.77
Water solubility (in words) ([1]; water): water-soluble

O=C(O)c1cc2ccccc2s1 [TNCA, benzo(b)thiophene-2-carboxylic acid, reference compound]
Gastric irritation [3]: causes gastric irritation, resulting in vomiting and bleeding
Absorption from the gastrointestinal tract / following oral administration [4]: poorly absorbed from the gastrointestinal tracts
Solubility in methanol (methyl alcohol) [1]: soluble in methanol
pKa [5]: 3.4
LD50 by injection ([6]; by injection, value repeated in text): 1450 mg/kg
LD50 ([6]; mice, oral, TNCA in gum tragacanth): 3600 mg/kg

O=C(O)c1cc2ccccc2s1 [Example 7]
Water solubility (in words) ([1]; water): water-insoluble

O=C(O)c1cc2ccccc2s1 [Example 3, Ammonium salt of TNCA]
pH of a 5% aqueous solution [2]: 6.05
Water solubility (in words) ([1]; water): water-soluble

O=C(O)c1cc2ccccc2s1 [Example 1, Benzo(b)thiophene-2-carboxylic acid L-Lysine salt]
Gastric irritation [3]: prevents the adverse effects associated with gastric irritation
Absorption from the gastrointestinal tract / following oral administration [4]: readily absorbed following oral administration
pH of a 5% aqueous solution [2]: 5.75
Solubility in ethanol (ethyl alcohol) [1]: insoluble
Solubility in methanol (methyl alcohol) [1]: insoluble
Solubility in toluene ([1]; toluene): insoluble
solubility ([1]; water): 700 mg/mL
LD50 given orally compared to that obtained when administered intraperitoneally [7]: almost equivalent
LD50 [8]: ~1300 mg/kg
LD50 ([8]; po): ~1500 mg/kg
Initial calcium levels (mean) ([9]; Experiment 1, 195 mg/kg group, N=8, initial (before treatment)): 12.28 mg/dL
Final calcium levels (mean) ([9]; Experiment 1, 195 mg/kg, N=8, control 17.38): 14.85 mg/dL
Initial calcium levels (mean) ([9]; Experiment 1, 292 mg/kg group, N=9, initial (before treatment)): 13.31 mg/dL
Final calcium levels (mean) ([9]; Experiment 1, 292 mg/kg, N=9, control 17.38): 11.54 mg/dL
Initial calcium (mean) ([9]; Experiment 2, 195 mg/kg group, N=6, initial (before treatment)): 14.07 mg/dL
Final calcium levels (mean) ([9]; Experiment 2, 195 mg/kg, N=6, control 18.03): 13.27 mg/dL
Initial calcium (mean) ([9]; Experiment 2, 292 mg/kg group, N=6, initial (before treatment)): 14.68 mg/dL
Final calcium levels (mean) ([9]; Experiment 2, 292 mg/kg, N=6, control 18.03): 11.00 mg/dL
Initial calcium (mean) ([9]; Experiment 2, 389 mg/kg group, N=10, initial (before treatment)): 13.80 mg/dL
Final calcium levels (mean) ([9]; Experiment 2, 389 mg/kg, N=8, control 18.03): 10.16 mg/dL
Decrease in calcium levels, dose relation ([9]; Experiments 1 and 2): clearly does-related in both experiments
Type of calcium-lowering activity ([9]; Experiments 1 and 2): anti-hypercalcemic, rather than hypocalcemic
Serum calcium levels following treatment ([9]; relative to pretreatment / normal levels): returned to pretreatment levels, but not to below normal values

O=C(O)c1cc2ccccc2s1 [Example 5, Piperidine salt of TNCA]
pH of a 5% aqueous solution [2]: 6.4
Water solubility (in words) ([1]; water): moderately water-soluble

C[C@H](N)C(=O)O [L-alanine]
Water solubility (in words) ([1]; water): No water-soluble reaction product is formed

O=C(O)c1cc2ccccc2s1 [Example 4, Arginine salt of TNCA]
pH of a 5% aqueous solution [2]: 5.8
Solubility in ethanol (ethyl alcohol) [1]: soluble
Solubility in methanol (methyl alcohol) [1]: soluble
Water solubility (in words) ([1]; water): water-soluble
